Source: patent US20250326748A1, “COMPOUNDS AND METHODS FOR MODULATING SPLICING” (REMIX THERAPEUTICS INC., priority 2022, published 2025)
Structures can show the parent of a compound that is named as a salt. Where two headings read alike, the source gives them in different places.

How the values were obtained:
K562 cells = assay: Cell viability, Cell Titer Glo 2.0 assay, K562; conditions: 72 hours
MYB mRNA = assay: Splicing RT-qPCR assay, MYB canonical (CJ) and alternative (AJ) junction mRNA; assay type: cell-based, human; conditions: Homo sapiens; for IC50: canonical junction mRNA; for AC50: alternative junction mRNA, read-out: MYB AJ (AC50, increase in AJ mRNA)
In short: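 One-step RT-qPCR on cell lysates quantified CJ and AJ isoforms, normalized to PPIA for A673 or GAPDH/GUSB for K562. Cells were exposed for 24 h at 37° C to 11 concentrations in 3-fold steps up to 10 uM, with DMSO ≤0.25%. A673 were grown in DMEM and K562 in IMDM, both with 10% FBS.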

[1] = qPCR panel, read-out: MYB CJ (decrease in CJ mRNA levels, IC50)
[2] = RT-qPCR, A673 or K562 cells, 24 hours treatment
[3] = RT-qPCR, A673 or K562 cells, 24 hours treatment, read-out: MYB CJ (IC50, decrease in CJ mRNA)

| Structure (SMILES) | Effect on Cell Viability, K562 (K562 cells) | IC50 (MYB mRNA; [1]) [nM] | AC50 (MYB mRNA; [2]) [nM] | IC50 (MYB mRNA; [3]) [nM] |
| --- | --- | --- | --- | --- |
| Cc1cn2nc(-c3cc(Cl)c4cc(N5CCC(N(C)C)CC5)cnc4n3)cc(C)c2n1 [Compound 348] | B (100-1000 nM) | 100 to 1000 | 100 to 1000 | 100 to 1000 |
| CN[C@H]1CCN(c2cnc3nc(-c4cc5cn(C)nc5c(F)c4O)cc(Cl)c3c2)C1 [Compound 272] | A (<100 nM) | < 100 | < 100 | < 100 |
| CN[C@@H]1CCN(c2cnc3nc(-c4cc(C)c5nc(C)cn5n4)ccc3c2)C1 [Compound 117] | B (100-1000 nM) | < 100 | 100 to 1000 | < 100 |
| Cc1c(O)c(-c2ccc3cc(N4CCC(N(C)C)CC4)cnc3n2)cc2cn(C)nc12 [Compound 138, 5-{6-[4-(dimethylamino)piperidin-1-yl]-1,8-naphthyridin-2-yl}-2,7-dimethylindazol-6-ol] | A (<100 nM) | 100 to 1000 | 100 to 1000 | 100 to 1000 |
| CCN[C@@H]1CCN(c2cnc3nc(-c4cc5cn(C)nc5cc4O)ccc3c2)C1 [Compound 310, 5-{6-[(3R)-3-(ethylamino)468pyrrolidine-1-yl]-1,8-naphthyridin-2-yl}-2-methylindazol-6-ol hydrochloride] | B (100-1000 nM) | < 100 | < 100 | < 100 |
| Cc1c(O)c(-c2ccc3cc(N4CCNCC4)cnc3n2)cc2cn(C)nc12 [Compound 137, 2,7-dimethyl-5-[6-(piperazin-1-yl)-1,8-naphthyridin-2-yl]indazol-6-ol] | B (100-1000 nM) | < 100 | < 100 | < 100 |
| C[C@@H]1CN(c2cnc3nc(-c4cc5cn(C)nc5c(F)c4O)cc(Cl)c3c2)C[C@H](C)N1 [Compound 279] | A (<100 nM) | < 100 | < 100 | < 100 |
| CN[C@@H]1CCN(c2cnc3nc(-c4cc5cn(C)nc5c(C)c4O)ncc3c2)C1 [Compound 107, 2,7-dimethyl-5-{6-[(3R)-3-(methylamino)pyrrolidin-1-yl]pyrido[2,3-d]pyrimidin-2-yl}indazol-6-ol hydrochloride] | A (<100 nM) | < 100 | < 100 | < 100 |
| CN[C@H]1CN(c2cnc3nc(-c4cc5cn(C)nc5c(C)c4O)ccc3c2)C[C@@H]1C [Compound 127, 2,7-dimethyl-5-{6-[(3S,4R)-3-methyl-4-(methylamino)384pyrrolidine-1-yl]-1,8-naphthyridin-2-yl}indazol-6-ol] | A (<100 nM) | < 100 | 100 to 1000 | < 100 |
| CN[C@H]1CCN(c2cnc3nc(-c4cc(C)c5nc(C)cn5n4)ccc3c2)C1 [Compound 116] | A (<100 nM) | < 100 | < 100 | < 100 |
| CCNC1CCN(c2cnc3nc(-c4cc5cn(C)nc5c(C)c4O)ccc3c2)C1 (centres unmarked) [Compound 122, 5-{6-[3-(ethylamino)pyrrolidin-1-yl]-1,8-naphthyridin-2-yl}-2,7-dimethylindazol-6-ol] | A (<100 nM) | < 100 | < 100 | < 100 |
| Cc1c(O)c(-c2cc(Cl)c3cc(N(C)[C@@H]4CCNC4)cnc3n2)cc2cn(C)nc12.Cl [Compound 293] | B (100-1000 nM) | 100 to 1000 | 100 to 1000 | 100 to 1000 |
| CN[C@H]1CCN(c2cnc3nc(-c4cc5cn(C)nc5c(C)c4O)cc(Cl)c3c2)C1.Cl [Compound 287] | A (<100 nM) | < 100 | < 100 | < 100 |
| Cn1cc2cc(-c3ccc4cc(NC5CCNCC5)cnc4n3)c(O)c(F)c2n1 [Compound 285] | B (100-1000 nM) | 100 to 1000 | 100 to 1000 | 100 to 1000 |
| CCN[C@@H]1CCN(c2cnc3nc(-c4cc5cn(C)nc5cc4O)cc(Cl)c3c2)C1 [Compound 317] | A (<100 nM) | < 100 | < 100 | < 100 |
| C[C@@H]1CN(c2cnc3nc(-c4ccc5nn(C)cc5c4)cc(Cl)c3c2)C[C@H](C)N1 [Compound 320, 4-chloro-6-[(3R,5S)-3,5-dimethylpiperazin-1-yl]-2-(2-methylindazol-5-yl)-1,8-naphthyridine] | C (1000-9999 nM) | 1000 to 10000 | 1000 to 10000 | 1000 to 10000 |

| Structure (SMILES) | Effect on Cell Viability, K562 (K562 cells) | IC50 (MYB mRNA; [1]) [nM] | AC50 (MYB mRNA; [2]) [nM] | IC50 (MYB mRNA; [3]) [nM] |
| --- | --- | --- | --- | --- |
| Cc1cn2nc(-c3ccc4c(Cl)c(N5C[C@H](C)N[C@@H](C)C5)cnc4n3)cc(C)c2n1 [Compound 393, 5-chloro-2-{2,8-dimethylimidazo[1,2-b]pyridazin-6-yl}-6-[(3S,5S)-3,5-dimethylpiperazin-1-yl]-1,8-naphthyridine] | B (100-1000 nM) | < 100 | < 100 | < 100 |
| Cn1cc2cc(-c3ccc4cc(N5CC[C@@H](NCC6CC6)C5)cnc4n3)c(O)cc2n1 [Compound 313] | B (100-1000 nM) | 100 to 1000 | < 100 | 100 to 1000 |
| CCN[C@H]1CCN(c2cnc3nc(-c4cc5cn(C)nc5cc4O)ccc3c2)C1 [Compound 311, 5-{6-[(3S)-3-(ethylamino)pyrrolidin-1-yl]-1,8-naphthyridin-2-yl}-2-methylindazol-6-ol hydrochloride] | B (100-1000 nM) | 100 to 1000 | 100 to 1000 | 100 to 1000 |
| C[C@@H]1CN(c2cnc3nc(-c4cc5cn(C)nc5cc4O)ccc3c2)C[C@H](C)N1 [Compound 343] | B (100-1000 nM) | 100 to 1000 | 100 to 1000 | 100 to 1000 |
| CCNC1CCN(c2cnc3nc(-c4cc5cn(C)nc5c(F)c4O)ccc3c2)C1 (centres unmarked) [Compound 106, 5-{6-[3-(ethylamino)pyrrolidin-1-yl]-1,8-naphthyridin-2-yl}-7-fluoro-2-methylindazol-6-ol] | A (<100 nM) | < 100 | < 100 | < 100 |
| Cc1c(O)c(-c2ccc3cc(N4CC[C@@H](NCC5CC5)C4)cnc3n2)cc2cn(C)nc12 [Compound 118] | A (<100 nM) | < 100 | < 100 | < 100 |
| Cn1cc2cc(-c3ccc4cc(N5CCC(NC(C)(C)C)C5)cnc4n3)c(O)cc2n1 (centres unmarked) [Compound 134, 5-{6-[3-(tert-butylamino)pyrrolidin-1-yl]-1,8-naphthyridin-2-yl}-2-methylindazol-6-ol hydrochloride] | B (100-1000 nM) | 100 to 1000 | 100 to 1000 | 100 to 1000 |
| Cc1c(O)c(-c2cc(Cl)c3cc(N4CCNC5(CC5)C4)cnc3n2)cc2cn(C)nc12 [Compound 381] | B (100-1000 nM) | < 100 | < 100 | < 100 |
| CN[C@H]1CCN(c2cnc3nc(-c4cc5cn(C)nc5c(C)c4O)ncc3c2)C1 [Compound 120] | A (<100 nM) | < 100 | < 100 | < 100 |
| Cc1cn2cc(-c3ccc4cc(N5C[C@@H](C)N[C@@H](C)C5)cnc4n3)cc(F)c2n1 [Compound 350] | C (1000-9999 nM) | 100 to 1000 | 1000 to 10000 | 100 to 1000 |
| Cc1cn2cc(-c3cc(Cl)c4cc(N5CCNCC5)cnc4n3)cc(F)c2n1 [Compound 153, 4-chloro-2-{8-fluoro-2-methylimidazo[1,2-a]pyridin-6-yl}-6-(piperazin-1-yl)-1,8-naphthyridine] | B (100-1000 nM) | 100 to 1000 | < 100 | 100 to 1000 |
| C[C@@H]1CN(c2cnc3nc(-c4cc(F)c5nn(C)cc5c4)cc(Cl)c3c2)CCN1 [Compound 295, 4-chloro-2-(7-fluoro-2-methylindazol-5-yl)-6-[(3R)-3-methylpiperazin-1-yl]-1,8-naphthyridine] | B (100-1000 nM) | < 100 | 100 to 1000 | < 100 |
| Cn1cc2cc(-c3ccc4cc(N5CC[C@H](NCC6CC6)C5)cnc4n3)c(O)cc2n1 [Compound 314] | B (100-1000 nM) | 100 to 1000 | 100 to 1000 | 100 to 1000 |
| C[C@H]1CN(c2cnc3nc(-c4cc(F)c5nn(C)cc5c4)cc(Cl)c3c2)CCN1 [Compound 296] | A (<100 nM) | < 100 | 100 to 1000 | < 100 |
| CNC1CCN(c2cnc3nc(-c4cc5cn(C)nc5c(C)c4O)cc(Cl)c3c2)C1 (centres unmarked) [Compound 142, 5-{4-chloro-6-[3-(methylamino)351pyrrolidine-1-yl]-1,8-naphthyridin-2-yl}-2,7-dimethylindazol-6-ol] | A (<100 nM) | < 100 | < 100 | < 100 |
| C[C@@H]1CN(c2cnc3nc(-c4cc5cn(C)nc5c(F)c4O)cc(Cl)c3c2)C[C@@H](C)N1 [Compound 281] | A (<100 nM) | < 100 | < 100 | < 100 |
